Measurements taken from patent publication US5112947A, “Peptides, and antidementia agents containing the same” (Nippon Chemiphar Co., Ltd., priority 1989, dated 1992).
Non-standard residues stand in square brackets, D forms with d. Residues, ends and D or L forms follow the SMILES beside them. *: point of attachment. Cys(free,S-linked) = N[C@@H](CS*)C(=O)O; pGlu = O=C1CC[C@@H](C(=O)O)N1; Aze = O=C(O)[C@@H]1CCN1

Each compound was assayed on male Wistar rats (assay: one-trial passive avoidance test: improvement of experimental retrograde amnesia by cycloheximide). Details: dose 0.1 ng/kg, given 1 h before electro-shock (0.5 mA); cycloheximide 2.7 to 3.0 mg/kg s.c.; retention tested at 48 hours; control = cycloheximide alone.
Format: in vivo, rat
Protocol: 221, pp. […], 1983. […] At 48 hours after the administration was made, memory retention of the rats were tested.

Compound | Effect (%): ratio of response latent period of each group to that of the control groups [%]
N=C(N)NCCC[C@H](NC(=O)[C@@H]1CCCN1C(=O)[C@H](CO)NC(=O)[C@H](CC(N)=O)NC(=O)[C@@H]1CCC(=O)N1)C(=O)NCC(N)=O [Example 21, pGlu-Asn-Ser-Pro-Arg-Gly-NH2 acetate] (HELM PEPTIDE1{[Glp].N.S.P.R.G.[am]}$$$$V2.0) | 353
N=C(N)NCCC[C@H](NC(=O)[C@@H]1CCCN1C(=O)[C@H](CO)NC(=O)[C@@H]1CCCN1)C(=O)O [Example 27, H-Pro-Ser-Pro-Arg-OH acetate] (H-PSPR-OH) | 213

Same assay, conditions: dose 1 ng/kg, given 1 h before electro-shock (0.5 mA); cycloheximide 2.7 to 3.0 mg/kg s.c.; retention tested at 48 hours; control = cycloheximide alone

Compound | Effect (%): ratio of response latent period of each group to that of the control groups [%]
N=C(N)NCCC[C@H](NC(=O)[C@@H]1CCCN1C(=O)[C@H](CSSC[C@H](N)C(=O)O)NC(=O)[C@@H]1CCCN1)C(=O)NCC(N)=O [Example 17] (H-PC(Cys(free,S-linked))PRG-NH2) | 365
N=C(N)NCCC[C@H](NC(=O)[C@@H]1CCCCN1C(=O)[C@H](CO)NC(=O)[C@@H](N)CC(N)=O)C(=O)O [Example 12, H-Asn Ser-Pip-Arg-OH acetate] (HELM PEPTIDE1{N.S.[O=C([C@@H]1CCCCN1[*:1])[*:2]].R}$$$$V2.0) | 235
N=C(N)NCCC[C@H](NC(=O)[C@@H]1CCN1C(=O)[C@H](CSSC[C@H](N)C(=O)O)NC(=O)[C@H](CC(N)=O)NC(=O)[C@@H]1CCC(=O)N1)C(=O)NCC(N)=O [Example 6] ([pGlu]NC(Cys(free,S-linked))[Aze]RG-NH2) | 239
C[C@H](NC(=O)[C@@H](N)CC(N)=O)C(=O)N1CCC[C@H]1C(=O)N[C@@H](CCCNC(=N)N)C(=O)O [Example 9, H-Asn-Ala-Pro-Arg-OH acetate] (H-NAPR-OH) | 460
